The source made the active and inactive calls. The calls are words filed in the database; no cut-off is given here.

Test [1] concerns Salmonella typhi. Kind of test: Antibacterial activity against Salmonella enterica subsp. enterica serovar Typhi ATCC 19430 assessed as growth inhibition after 24 hr by disk diffusion method. The test is classed as functional.
Test [2] concerns Pseudomonas aeruginosa. Kind of test: Antibacterial activity against Pseudomonas aeruginosa ATCC 27853 assessed as diameter of growth inhibition zone at 20 mg/ml after 24 hr by disk diffusion method. The format is functional. The note with it: ATCC 27853, 24 h, read-out: DIZ. (A growth-free zone around the sample is the usual read-out of agar diffusion tests.)
Test [3] deals with Escherichia coli. Kind of test: Antibacterial activity against Escherichia coli ATCC 25922 assessed as diameter of growth inhibition zone at 20 mg/ml after 24 hr by disk diffusion method. The test is classed as functional. The note with it: ATCC 25922, 24 h, read-out: DIZ.
Test [4] deals with Priestia megaterium. Kind of test: Antibacterial activity against Bacillus megaterium ATCC 12872 assessed as diameter of growth inhibition zone at 20 mg/ml after 24 hr by disk diffusion method. The test is classed as functional. The conditions noted are these: ATCC 12872, 24 h, read-out: DIZ.
In test [5] the test system is Klebsiella pneumoniae. Kind of test: Antibacterial activity against Klebsiella pneumoniae ATCC 15380 assessed as diameter of growth inhibition zone at 20 mg/ml after 24 hr by disk diffusion method. The test is classed as functional. The note with it: ATCC 15380, 24 h, read-out: DIZ.
The subject of test [6] is Citrobacter freundii. Kind of test: Antibacterial activity against Citrobacter freundii ATCC 8090 = MTCC 1658 assessed as diameter of growth inhibition zone at 20 mg/ml after 24 hr by disk diffusion method. The test is classed as functional. The conditions noted are these: ATCC 8090 = MTCC 1658, 24 h, read-out: DIZ.
Test [7] deals with Salmonella typhi. Kind of test: Antibacterial activity against Salmonella enterica subsp. enterica serovar Typhi ATCC 19430 assessed as diameter of growth inhibition zone at 20 mg/ml after 24 hr by disk diffusion method. The format is functional. The note with it: ATCC 19430, 24 h, read-out: DIZ.
Test [8] concerns PC-3. Kind of test: Anticancer activity against Homo sapiens (human) PC3 cells at 0.1 to 100 uM by SRB assay. The test is classed as functional, cell-based.
For test [9], the system named is OVCAR-3. Kind of test: Anticancer activity against Homo sapiens (human) OVCAR3 cells at 0.1 to 100 uM by SRB assay. The format is functional, cell-based. (Sulforhodamine B stains cellular protein and so reports cell mass.)
The test system of test [10] is MDA-MB-435. Kind of test: Anticancer activity against Homo sapiens (human) MDA-MB-435 cells at 0.1 to 100 uM by SRB assay. The format is functional, cell-based.

On to `Cc1ccsc1C1C(C#N)=C(N)Oc2[nH]c(=O)[nH]c(=O)c21` (stereo not drawn), for which the MIC in test [1] was 10 µg. The zone of inhibition at 20000 µg/mL in test [2] worked out at 20 mm; in test [3], 16 mm; in [4], 10 mm; in [5] it was 22 mm; in test [6] it was 12 mm; in [7] it was 21 mm.
As for `N#CC1=C(N)Oc2[nH]c(=O)[nH]c(=O)c2C1c1cccs1` (stereo not drawn), the MIC in test [1] worked out at 10 µg. Further, the zone of inhibition at 20000 µg/mL amounted to 18 mm in [2]; 15 mm in test [3]; 12 mm in test [4]; 20 mm in test [5]; 12 mm in test [6]; 22 mm in [7].
In the case of `CC1(C)CC(=O)C2=C(C1)OC(N)=C(C#N)C2c1cccs1` (stereo not drawn), the MIC in test [1] amounted to 10 µg. The zone of inhibition at 20000 µg/mL in test [2] came to 20 mm; in [3], 20 mm; in test [4], 10 mm; in test [5], 19 mm; in test [6], 10 mm; in test [7] it was 22 mm.
On to `N#CC1=C(N)Oc2[nH]c(=O)[nH]c(=O)c2C1c1ccco1` (stereo not drawn), for which the MIC in test [1] was found to be 10 µg. The result in [8], in test [9] and in test [10] was inactive. Also, the zone of inhibition at 20000 µg/mL turned out to be 14 mm in [2]; 12 mm in [3]; 14 mm in [4]; 16 mm in [5]; 10 mm in [6]; 18 mm in test [7].
On to `CC1(C)CC(=O)C2=C(C1)OC(N)=C(C#N)C2c1ccc[nH]1` (stereo not drawn), for which the MIC in [1] turned out to be 10 µg. Also, the zone of inhibition at 20000 µg/mL stood at 20 mm in test [2]; 20 mm in test [3]; 12 mm in test [4]; 19 mm in [5]; 10 mm in test [6]; 22 mm in [7].
On to `CC1(C)CC(=O)C2=C(C1)OC(N)=C(C#N)C2c1ccco1` (stereo not drawn), for which, in test [1], the MIC came to 10 µg. Further, the result in test [8], in [9] and in [10] was inactive. The zone of inhibition at 20000 µg/mL in test [2] amounted to 14 mm; in test [3], 16 mm; in test [4], 12 mm; in test [5] it was 15 mm; in [6], 10 mm; in test [7], 15 mm.
`COc1cccc2c1C(=O)c1c(O)c3c(c(O)c1C2=O)C[C@@](O)(C(=O)CO)C[C@@H]3O[C@H]1C[C@H](N)[C@H](O)[C@H](C)O1`: the outcome in test [8], in test [9] and in test [10] was Active.
Turning to `Cc1ccc(C2C(C#N)=C(N)Oc3[nH]c(=O)[nH]c(=O)c32)o1` (stereo not drawn), in [1], the MIC was 10 µg. Also, the zone of inhibition at 20000 µg/mL in [2] came to 15 mm; in test [3], 12 mm; in test [4], 14 mm; in test [5], 17 mm; in [6] it was 10 mm; in test [7] it was 18 mm.
Take `Cc1ccc(C2C(C#N)=C(N)OC3=C2C(=O)CC(C)(C)C3)s1` (stereo not drawn): the MIC in [1] came to 10 µg. Moreover, the zone of inhibition at 20000 µg/mL in [2] was found to be 22 mm; in test [3], 22 mm; in test [4] it was 10 mm; in test [5] it was 21 mm; in test [6] it was 10 mm; in [7], 19 mm.
As for `Cc1ccc(C2C(C#N)=C(N)Oc3[nH]c(=O)[nH]c(=O)c32)s1` (stereo not drawn), in [1], the MIC stood at 10 µg. The zone of inhibition at 20000 µg/mL came out at 22 mm in test [2]; 16 mm in test [3]; 10 mm in test [4]; 22 mm in test [5]; 12 mm in test [6]; 20 mm in test [7].
Turning to `N#CC1=C(N)Oc2[nH]c(=O)[nH]c(=O)c2C1c1ccc[nH]1` (stereo not drawn), in [1], the MIC stood at 10 µg. Further, the zone of inhibition at 20000 µg/mL is 18 mm in test [2]; 14 mm in test [3]; 12 mm in [4]; 20 mm in test [5]; 12 mm in test [6]; 22 mm in test [7].
As for `Cc1ccsc1C1C(C#N)=C(N)OC2=C1C(=O)CC(C)(C)C2` (stereo not drawn), in test [1], the MIC stood at 10 µg. Besides, the zone of inhibition at 20000 µg/mL in [2] was 22 mm; in test [3], 21 mm; in [4] it was 12 mm; in test [5], 20 mm; in [6], 10 mm; in [7] it was 19 mm.
Regarding `Cc1ccc(C2C(C#N)=C(N)OC3=C2C(=O)CC(C)(C)C3)o1` (stereo not drawn), the MIC in [1] amounted to 10 µg. Also, the zone of inhibition at 20000 µg/mL in test [2] turned out to be 15 mm; in test [3], 17 mm; in test [4], 12 mm; in test [5], 15 mm; in [6], 10 mm; in test [7], 16 mm.

Values taken from ChEMBL document CHEMBL3046029, “Green approach towards the facile synthesis of dihydropyrano(c)chromene and pyrano[2,3-d]pyrimidine derivatives and their biological evaluation” (2013).
